Assay results taken from patent publication US9303042B2, “Triazolothienopyrimidine compound inhibitors of urea transporters and methods of using inhibitors” (The Regents of the University of California, priority 2012, dated 2016).

The compounds below were run against T1, UT-B (Mus musculus, UniProt Q8VHL0) (assay: Erythrocyte lysis assay of UT-B inhibition). Settings: not given.
T1 sequence (Q8VHL0 1-384): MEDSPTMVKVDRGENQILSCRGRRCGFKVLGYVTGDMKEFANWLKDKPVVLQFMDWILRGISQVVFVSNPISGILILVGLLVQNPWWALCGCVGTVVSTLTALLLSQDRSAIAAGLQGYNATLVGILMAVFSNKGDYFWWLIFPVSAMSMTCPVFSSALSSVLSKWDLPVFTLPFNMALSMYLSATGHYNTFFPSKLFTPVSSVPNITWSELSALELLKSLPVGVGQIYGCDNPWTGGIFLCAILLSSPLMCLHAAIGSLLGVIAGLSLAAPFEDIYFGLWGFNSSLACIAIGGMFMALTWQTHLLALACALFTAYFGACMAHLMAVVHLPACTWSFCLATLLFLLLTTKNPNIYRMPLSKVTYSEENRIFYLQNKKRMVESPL
Format: cell-based
Set-up: Screening was performed using mouse erythrocytes, which strongly express UT-B; endogenous in cells; host or cells: erythrocytes in whole blood of wild-type CD1 mice
Description: Screening was performed using mouse erythrocytes, which strongly express UT-B and are highly water permeable because the cells also express aquaporin-1 (AQP1) water channels. The screening method involved assay of erythrocyte lysis in response to a large, outwardly directed gradient of acetamide, a urea analog that is transported efficiently by UT-B. A large, outwardly directed gradient of acetamide causes transient cell swelling, but little cell lysis, because UT-B-facilitated acetamide efflux limits water influx (see FIG. 1A). UT-B inhibition prevents acetamide efflux, allowing unopposed cell swelling and consequent cell lysis, which was recorded by reduced near-infrared light absorption at 710 nm.
Primary screening was done using a collection of 100,000 diverse, drug-like compounds from commercial sources (ChemDiv, San Diego, Calif.; Asinex, Winston-Salem, N.C.). […] Vigorous mixing was achieved by repeated pipetting. Erythrocyte lysis was quantified by absorbance at 710 nm wavelength, made within 5 min after hypo-osmolar shock. […] For analysis of structure-activity relationships >900 commercially available analogs (ChemDiv and Asinex) were tested.

Compound	IC50
CCc1ccc(S(=O)(=O)c2nnn3c2nc(N2CCOCC2)c2sccc23)cc1 [Compound 2bq]	5710 nM

Same assay, conditions: Table 1, commercially available analogues, erythrocyte lysis assay; read-out: IC50

IC50	Compound
9850 nM	CCOCCCNc1nc2c(S(=O)(=O)c3cc(C)ccc3C)nnn2c2ccsc12 [Compound 2ck, {3-[2,5-dimethyl-benzenesulfonyl]-thieno[2,3-e][1,2,3]triazolo[1,5-a]pyrimidin-5-yl}-3-ethoxypropyl-amine]
2500 nM	COCCNc1nc2c(S(=O)(=O)c3ccc(C)c(C)c3)nnn2c2ccsc12 [Compound 2ba, {3-[3,4-dimethyl-benzenesulfonyl]-thieno[2,3-e][1,2,3]triazolo[1,5-a]pyrimidin-5-yl}-2-methoxyethyl-amine]
2080 nM	O=S(=O)(c1cccc(Cl)c1)c1nnn2c1nc(NCc1cccs1)c1sccc12 [Compound 2cw, {3-[3-chloro-benzenesulfonyl]-thieno[2,3-e][1,2,3]triazolo[1,5-a]pyrimidin-5-yl}-thiophen-2-ylmethyl-amine]
3140 nM	NC(=O)C1CCN(c2nc3c(S(=O)(=O)c4cccc(Cl)c4)nnn3c3ccsc23)CC1 [Compound 2cv]
2190 nM	Cc1ccc(S(=O)(=O)c2nnn3c2nc(NC(C)C)c2sccc23)cc1C [Compound 2av]
590 nM	CCc1ccc(S(=O)(=O)c2nnn3c2nc(N2CCN(C)CC2)c2sccc23)cc1 [Compound 2cc]
1650 nM	Cc1ccc(C)c(S(=O)(=O)c2nnn3c2nc(NCc2ccccc2)c2sccc23)c1 [Compound 2cq, [3-(2,5-dimethyl-benzenesulfonyl)-thieno[2,3-e][1,2,3]triazolo[1,5-a]pyrimidin-5-yl]-benzyl-amine]
5740 nM	Cc1ccc(S(=O)(=O)c2nnn3c2nc(NCC2CCCO2)c2sccc23)cc1 (stereo not drawn) [Compound 2ae, tetrahydrofuran-2-ylmethyl-[3-(4-methyl-benzenesulfonyl)-thieno[2,3-e][1,2,3]triazolo[1,5-a]pyrimidin-5-yl]-amine]
7660 nM	NC(=O)C1CCN(c2nc3c(S(=O)(=O)c4ccccc4)nnn3c3ccsc23)CC1 [Compound 2aa]
4080 nM	CCOCCCNc1nc2c(S(=O)(=O)c3ccc(C(C)C)cc3)nnn2c2ccsc12 [Compound 2bl, {3-[4-isopropyl-benzenesulfonyl]-thieno[2,3-e][1,2,3]triazolo[1,5-a]pyrimidin-5-yl}-3-ethoxylpropyl-amine]
8190 nM	Cc1ccc(S(=O)(=O)c2nnn3c2nc(NC2CCCCC2)c2sccc23)cc1C [Compound 2bb]
671 nM	Cc1ccc(C)c(S(=O)(=O)c2nnn3c2nc(NCc2ccc(F)cc2)c2sccc23)c1 [Compound 2cp, [3-(2,5-dimethyl-benzenesulfonyl)-thieno[2,3-e][1,2,3]triazolo[1,5-a]pyrimidin-5-yl]-(4-fluoro-benzyl)-amine]
3770 nM	COc1cccc(CNc2nc3c(S(=O)(=O)c4ccc(C)c(C)c4)nnn3c3ccsc23)c1 [Compound 2ay, [3-(3,4-dimethyl-benzenesulfonyl)-thieno[2,3-e][1,2,3]triazolo[1,5-a]pyrimidin-5-yl]-(3-methoxy-benzyl)-amine]
2060 nM	Cc1ccc(C)c(S(=O)(=O)c2nnn3c2nc(NCCCOC(C)C)c2sccc23)c1 [Compound 2cl, {3-[2,5-dimethyl-benzenesulfonyl]-thieno[2,3-e][1,2,3]triazolo[1,5-a]pyrimidin-5-yl}-3-(1-methylethoxyl)propyl-amine]
3340 nM	Cc1ccc(C)c(S(=O)(=O)c2nnn3c2nc(N2CCC(C(N)=O)CC2)c2sccc23)c1 [Compound 2ci]
2870 nM	COCCNc1nc2c(S(=O)(=O)c3ccc(C)cc3)nnn2c2ccsc12 [Compound 2ai, {3-[4-methyl-benzenesulfonyl]-thieno[2,3-e][1,2,3]triazolo[1,5-a]pyrimidin-5-yl}-2-methoxyethyl-amine]

IC50	Compound
11700 nM	Cc1ccc(S(=O)(=O)c2nnn3c2nc(NCCCOC(C)C)c2sccc23)cc1 [Compound 2af, {3-[4-methyl-benzenesulfonyl]-thieno[2,3-e][1,2,3]triazolo[1,5-a]pyrimidin-5-yl}-3-(1-methylethoxyl)propyl-amine]
2480 nM	Cc1ccc(S(=O)(=O)c2nnn3c2nc(NCCCOC(C)C)c2sccc23)cc1C [Compound 2ax, {3-[3,4-dimethyl-benzenesulfonyl]-thieno[2,3-e][1,2,3]triazolo[1,5-a]pyrimidin-5-yl}-3-(1-methylethoxyl)propyl-amine]
11900 nM	CCc1ccc(S(=O)(=O)c2nnn3c2nc(N2CCN(CC)CC2)c2sccc23)cc1 [Compound 2cd]
2120 nM	Cc1ccc(S(=O)(=O)c2nnn3c2nc(N2CCC(C(N)=O)CC2)c2sccc23)cc1C [Compound 2aq]
6380 nM	Cc1ccc(S(=O)(=O)c2nnn3c2nc(NC2CCCC2)c2sccc23)cc1 [Compound 2al]
2310 nM	COCCCNc1nc2c(S(=O)(=O)c3ccc(Cl)cc3)nnn2c2ccsc12 [Compound 2bj, {3-[4-chloro-benzenesulfonyl]-thieno[2,3-e][1,2,3]triazolo[1,5-a]pyrimidin-5-yl}-3-methoxypropyl-amine]
7880 nM	CCN1CCN(c2nc3c(S(=O)(=O)c4ccc(C)cc4)nnn3c3ccsc23)CC1 [Compound 2ak]
1540 nM	CCc1ccc(S(=O)(=O)c2nnn3c2nc(NC2CCCC2)c2sccc23)cc1 [Compound 2bz]
2660 nM	Cc1ccc(C)c(S(=O)(=O)c2nnn3c2nc(NCc2ccco2)c2sccc23)c1 [Compound 2cs, furan-2-ylmethyl-[3-(2,5-dimethyl-benzenesulfonyl)-thieno[2,3-e][1,2,3]triazolo[1,5-a]pyrimidin-5-yl]-amine]
2490 nM	CCN(CC)c1nc2c(S(=O)(=O)c3ccc(C)c(C)c3)nnn2c2ccsc12 [Compound 2ap]
2750 nM	COc1cccc(CNc2nc3c(S(=O)(=O)c4ccc(C)cc4)nnn3c3ccsc23)c1 [Compound 2ah, [3-(4-methyl-benzenesulfonyl)-thieno[2,3-e][1,2,3]triazolo[1,5-a]pyrimidin-5-yl]-(3-methoxy-benzyl)-amine]
5640 nM	Cc1ccc(S(=O)(=O)c2nnn3c2nc(NCc2ccc(F)cc2)c2sccc23)cc1C [Compound 2be, [3-(3,4-dimethyl-benzenesulfonyl)-thieno[2,3-e][1,2,3]triazolo[1,5-a]pyrimidin-5-yl]-(4-fluoro-benzyl)-amine]
11200 nM	Cc1ccc(S(=O)(=O)c2nnn3c2nc(NC(C)c2ccccc2)c2sccc23)cc1 (stereo not drawn) [Compound 2ag, [3-(4-methyl-benzenesulfonyl)-thieno[2,3-e][1,2,3]triazolo[1,5-a]pyrimidin-5-yl]-(1-phenyl-1-methyl)methyl-amine]
2660 nM	CC(C)c1ccc(S(=O)(=O)c2nnn3c2nc(NCC2CCCO2)c2sccc23)cc1 (stereo not drawn) [Compound 2bk, tetrahydrofuran-2-ylmethyl-[3-(4-isopropyl-benzenesulfonyl)-thieno[2,3-e][1,2,3]triazolo[1,5-a]pyrimidin-5-yl]-amine]
2150 nM	Cc1ccc(S(=O)(=O)c2nnn3c2nc(NCc2ccco2)c2sccc23)cc1 [Compound 2ac, furan-2-ylmethyl-[3-(4-methyl-benzenesulfonyl)-thieno[2,3-e][1,2,3]triazolo[1,5-a]pyrimidin-5-yl]-amine]
8460 nM	CCc1ccc(S(=O)(=O)c2nnn3c2nc(NCCN(C)C)c2sccc23)cc1 [Compound 2ch]
